Results published in patent US9708368B2, “Linear peptide antibiotics” (priority 2012, dated 2017).
In brackets after ≈: the same amount, converted by molar mass. Square brackets hold non-standard residues; d marks the D form. Peptide text beside a SMILES is read from it. * marks the point of attachment. ξ: configuration not given here. boroAla((+)-pinanediol) = C[C@H](N*)B1O[C@@H]2C[C@@H]3C[C@@H](C3(C)C)[C@]2(C)O1; Biphenylcarbonyl(4'-Bu) = CCCCc1ccc(-c2ccc(C(=O)*)cc2)cc1; X1 = C[C@H](N*)B1OC2C[C@@H]3C[C@@H](C3(C)C)[C@]2(C)O1; Benzoyl(4-(4-Cl-Ph)) = O=C(c1ccc(-c2ccc(Cl)cc2)cc1)*; Lys(Me3) = C[N+](C)(C)CCCC[C@H](N)C(=O)O; Pro(4R-NH2) = N[C@H]1CN[C@H](C(=O)O)C1; NMeY = CN[C@@H](Cc1ccc(O)cc1)C(=O)O; Gly(cPr) = N[C@H](C(=O)O)C1CC1; Thr(3ξ) = CC(O)[C@H](N)C(=O)O; boroAla = C[C@H](N*)B(O)O; Orn = NCCC[C@H](N)C(=O)O; Dab = NCC[C@H](N)C(=O)O; Abu = CC[C@H](N)C(=O)O; Dap = NC[C@H](N)C(=O)O; βAla = NCCC(=O)O

Tests used:
[1] = system: Escherichia coli strain MC4100 IMP-4213, which harbors an LptD mutation; conditions: Method B; E. coli MC4100 IMP-4213 (LptD mutation); 35° C., 22 hours
Protocol: In vitro antimicrobial activity of each compound was determined by measuring minimal inhibitor concentrations (MICs) using the broth micro-dilution technique as approved by the Clinical and Laboratory Standards Institute (CLSI). […] Bacterial inocula were prepared by scraping cells into 1 mL of testing media (cation adjusted Mueller Hinton Broth supplemented with 0.002% v/v Tween-80) and diluting to a final OD600 nm of 0.01.
Test compounds were prepared in DMSO at a concentration of 10 mg/ml. […] Bacterial inocula were added to the two fold serial dilutions of test compounds to a final density of OD OD600 nm of 0.0005 and incubated stationarily at 35° C. for 22 hours, after which the plates were examined visually.

[2] = system: methicillin resistant Staphylococcus aureus (MRSA) strain USA300 (NRS384); conditions: Method B, 35° C., 22 hours
[3] = molecular target: S. aureus SPase (Staphylococcus aureus, UniProt P0A070); test: biochemical
[4] = molecular target: E. coli SPase (Escherichia coli, UniProt P00803); test: Biochemical SPase activity assay (fluorogenic peptide substrate), E. coli enzyme

Row | Structure (SMILES) | MIC (μg/mL) E. coli [1] | MIC (μg/mL) S. aureus [2] | IC50 [3] | IC50 [4]
1 | CCCCc1ccc(-c2ccc(C(=O)N[C@@H](CCCCN)C(=O)N[C@H](C(=O)N[C@@H](CC)C(=O)N[C@@H](CC(N)=O)C(=O)N[C@@H](C)B3O[C@@H]4C[C@@H]5C[C@@H](C5(C)C)[C@]4(C)O3)[C@@H](C)O)cc2)cc1 [Compound 144] ({Biphenylcarbonyl(4'-Bu)}-KT[Abu]N-{boroAla((+)-pinanediol)}) | 0.25 µg/mL (≈ 0.282 µM) | 0.25 µg/mL (≈ 0.282 µM) | 0.036 µM | 0.018 µM
2 | CC(C)C[C@H](NC(=O)[C@H](C)NC(=O)[C@H](CCCCN)NC(=O)[C@H](CCCCN)NC(=O)c1ccc(-c2ccc(Cl)cc2)cc1)C(=O)N[C@@H](C)B1OC2C[C@@H]3C[C@@H](C3(C)C)[C@]2(C)O1 (stereo partly shown) [Compound 145] ({Benzoyl(4-(4-Cl-Ph))}-KKAL-X1) | 5 µg/mL (≈ 5.69 µM) | 3.2 µg/mL (≈ 3.64 µM) | 0.24 µM | 0.039 µM
3 | CCCCc1ccc(-c2ccc(C(=O)N[C@@H](CCCCN)C(=O)N[C@@H](CCCCN)C(=O)N[C@@H](C)C(=O)N[C@@H](CC(C)C)C(=O)N[C@@H](C)B3OC4C[C@@H]5C[C@@H](C5(C)C)[C@]4(C)O3)cc2)cc1 (stereo partly shown) [Compound 146] ({Biphenylcarbonyl(4'-Bu)}-KKAL-X1) | 0.25 µg/mL (≈ 0.278 µM) | 0.4 µg/mL (≈ 0.444 µM) | 0.16 µM | 0.012 µM
4 | CCCCc1ccc(-c2ccc(C(=O)N[C@@H](CCCCN)C(=O)N[C@H](C(=O)N[C@H](C(=O)N[C@@H](CCCCN)C(=O)N[C@@H](C)B(O)O)C3CC3)C(C)O)cc2)cc1 (stereo partly shown) [Compound 147] ({Biphenylcarbonyl(4'-Bu)}-K[Thr(3ξ)][Gly(cPr)]K-boroAla) | 0.31 µg/mL (≈ 0.398 µM) | 0.25 µg/mL (≈ 0.321 µM) | 0.098 µM | 0.014 µM
5 | CCCCc1ccc(-c2ccc(C(=O)N[C@@H](CCN)C(=O)N[C@H](C(=O)N[C@@H](C)C(=O)N[C@@H](CCCCN)C(=O)N[C@@H](C)B3OC4C[C@@H]5C[C@@H](C5(C)C)[C@]4(C)O3)C(C)O)cc2)cc1 (stereo partly shown) [Compound 148] ({Biphenylcarbonyl(4'-Bu)}-[Dab][Thr(3ξ)]AK-X1) | 0.4 µg/mL (≈ 0.465 µM) | 0.23 µg/mL (≈ 0.267 µM) | 0.14 µM | 0.0074 µM
6 | CCCCc1ccc(-c2ccc(C(=O)N[C@@H](CN)C(=O)N[C@H](C(=O)N[C@@H](C)C(=O)N[C@@H](CCCCN)C(=O)N[C@@H](C)B3O[C@@H]4C[C@@H]5C[C@@H](C5(C)C)[C@]4(C)O3)[C@@H](C)O)cc2)cc1 [Compound 149] ({Biphenylcarbonyl(4'-Bu)}-[Dap]TAK-{boroAla((+)-pinanediol)}) | 0.31 µg/mL (≈ 0.366 µM) | 0.28 µg/mL (≈ 0.331 µM) | 0.129 µM | 0.0039 µM
7 | CCCCc1ccc(-c2ccc(C(=O)N[C@@H](CCCN)C(=O)N[C@H](C(=O)N[C@@H](CC)C(=O)N[C@@H](CCCCN)C(=O)N[C@@H](C)B3OC4C[C@@H]5C[C@@H](C5(C)C)[C@]4(C)O3)C(C)O)cc2)cc1 (stereo partly shown) [Compound 150] ({Biphenylcarbonyl(4'-Bu)}-[Orn][Thr(3ξ)][Abu]K-X1) | 0.5 µg/mL (≈ 0.563 µM) | 0.3 µg/mL (≈ 0.338 µM) | 0.27 µM | 0.006 µM
8 | CCCCc1ccc(-c2ccc(C(=O)N[C@@H](CCCCN)C(=O)N[C@@H](CCC(=O)O)C(=O)N[C@@H](C)C(=O)N[C@@H](CCCCN)C(=O)N[C@@H](C)B3O[C@@H]4C[C@@H]5C[C@@H](C5(C)C)[C@]4(C)O3)cc2)cc1 [Compound 151] ({Biphenylcarbonyl(4'-Bu)}-KEAK-{boroAla((+)-pinanediol)}) | 1.2 µg/mL (≈ 1.31 µM) | 0.71 µg/mL (≈ 0.775 µM) | 0.038 µM | 0.0088 µM
9 | CCCCc1ccc(-c2ccc(C(=O)N[C@@H](CCCCN)C(=O)N3C[C@H](N)C[C@H]3C(=O)N[C@@H](C)C(=O)N[C@@H](CC(C)C)C(=O)N[C@@H](C)B(O)O)cc2)cc1 [Compound 152] ({Biphenylcarbonyl(4'-Bu)}-K[Pro(4R-NH2)]AL-boroAla) | 0.5 µg/mL (≈ 0.667 µM) | 0.4 µg/mL (≈ 0.534 µM) | 0.35 µM | 0.025 µM
10 | C[C@H](NC(=O)[C@H](CC(N)=O)NC(=O)[C@H](C)NC(=O)[C@@H](NC(=O)[C@H](CCCCN)NC(=O)CCNC(=O)c1ccc(-c2ccc(Cl)cc2)cc1)[C@@H](C)O)B(O)O [Compound 154] ({Benzoyl(4-(4-Cl-Ph))-βAla}-KTAN-boroAla) | 32 µg/mL (≈ 40.6 µM) | 2.8 µg/mL (≈ 3.55 µM) | 0.0081 µM | 0.014 µM
11 | CCCCc1ccc(-c2ccc(C(=O)N[C@@H](CCCN)C(=O)N[C@H](C(=O)N[C@@H](C)C(=O)N[C@@H](CCCCN)C(=O)N[C@@H](C)B(O)O)C(C)O)cc2)cc1 (stereo partly shown) [Compound 156] ({Biphenylcarbonyl(4'-Bu)}-[Orn][Thr(3ξ)]AK-boroAla) | 0.5 µg/mL (≈ 0.676 µM) | 0.31 µg/mL (≈ 0.419 µM) | 0.097 µM | 0.0055 µM
12 | CCCCc1ccc(-c2ccc(C(=O)N[C@@H](CCCCN)C(=O)N(C)[C@@H](Cc3ccc(O)cc3)C(=O)N[C@@H](C)C(=O)N[C@@H](CCCCN)C(=O)N[C@@H](C)B(O)O)cc2)cc1 [Compound 157] ({Biphenylcarbonyl(4'-Bu)}-K[NMeY]AK-boroAla) | 4 µg/mL (≈ 4.82 µM) | 2 µg/mL (≈ 2.41 µM) | 1 µM | 0.13 µM
13 | CCCCc1ccc(-c2ccc(C(=O)N[C@@H](CCCCN)C(=O)N3CCC[C@H]3C(=O)N[C@@H](C)C(=O)N[C@@H](CC(N)=O)C(=O)N[C@@H](C)B(O)O)cc2)cc1 [Compound 158] ({Biphenylcarbonyl(4'-Bu)}-KPAN-boroAla) | 5 µg/mL (≈ 6.8 µM) | 5.7 µg/mL (≈ 7.75 µM) | 0.4 µM | 0.033 µM
14 | CCCCc1ccc(-c2ccc(C(=O)N[C@@H](CCCC[N+](C)(C)C)C(=O)N[C@H](C(=O)N[C@@H](C)C(=O)N[C@@H](CCCCN)C(=O)N[C@@H](C)B(O)O)[C@@H](C)O)cc2)cc1 [Compound 159] ({Biphenylcarbonyl(4'-Bu)}-[Lys(Me3)]TAK-boroAla) | 16 µg/mL | 1 µg/mL | 0.086 µM | 0.24 µM
15 | CCCCc1ccc(-c2ccc(C(=O)N[C@H](CCCCN)C(=O)N[C@H](C(=O)N[C@@H](C)C(=O)N[C@@H](CCCCN)C(=O)N[C@@H](C)B(O)O)C(C)O)cc2)cc1 (stereo partly shown) [Compound 160] ({Biphenylcarbonyl(4'-Bu)}-[dK][Thr(3ξ)]AK-boroAla) | 64 µg/mL (≈ 84.9 µM) | 2.8 µg/mL (≈ 3.71 µM) | 0.9 µM | 2.1 µM
16 | CCCCc1ccc(-c2ccc(C(=O)N[C@@H](CCCCN)C(=O)N[C@@H](CCN)C(=O)N[C@@H](C)C(=O)N[C@@H](CC(C)C)C(=O)N[C@@H](C)B(O)O)cc2)cc1 [Compound 161] ({Biphenylcarbonyl(4'-Bu)}-K[Dab]AL-boroAla) | 0.71 µg/mL (≈ 0.962 µM) | 0.63 µg/mL (≈ 0.854 µM) | 0.3 µM | 0.06 µM
17 | CCCCc1ccc(-c2ccc(C(=O)N[C@@H](CN)C(=O)N[C@H](C(=O)N[C@@H](C)C(=O)N[C@@H](CCCCN)C(=O)N[C@@H](C)B(O)O)[C@@H](C)O)cc2)cc1 [Compound 162] ({Biphenylcarbonyl(4'-Bu)}-[Dap]TAK-boroAla) | 0.5 µg/mL (≈ 0.703 µM) | 0.4 µg/mL (≈ 0.562 µM) | 0.2 µM | 0.012 µM
18 | CCCCc1ccc(-c2ccc(C(=O)N[C@@H](CCC(=O)O)C(=O)N[C@H](C(=O)N[C@@H](C)C(=O)N[C@@H](CCCCN)C(=O)N[C@@H](C)B(O)O)[C@@H](C)O)cc2)cc1 [Compound 163] ({Biphenylcarbonyl(4'-Bu)}-ETAK-boroAla) | >64 µg/mL | 4 µg/mL (≈ 5.3 µM) | 0.31 µM | 0.24 µM
19 | CCCCc1ccc(-c2ccc(C(=O)N[C@@H](CO)C(=O)N[C@H](C(=O)N[C@@H](C)C(=O)N[C@@H](CCCCN)C(=O)N[C@@H](C)B(O)O)[C@@H](C)O)cc2)cc1 [Compound 164] ({Biphenylcarbonyl(4'-Bu)}-STAK-boroAla) | 1 µg/mL (≈ 1.4 µM) | 1.4 µg/mL (≈ 1.96 µM) | 0.12 µM | 0.044 µM
